Results: patent publication US4558122A, “Stable s-adenosylmethionine derivatives, the process for their preparation, and therapeutic compositions which contain them as active principle” (Bioresearch S.P.A., priority 1981, dated 1985)
Read-outs that look alike come from different tables or passages of the source. Each block holds one compound with its values, some of them ahead of it.

Assays:
[1] = physchem; format: physicochemical; conditions: water
[2] = absorption "in situ" (intestinal sacs); format: in vivo, rat; conditions: rat, in situ intestinal sacs, 2 mg in 1 ml physiological solution, rats, H2 SO4 salts, m 0 or 1, n 3, read-out: PRODUCT ABSORPTION in sacs
Method: (§1) In the 1st test, known as "in situ" (intestinal sacs), 2 mg of each product to be tested in 1 ml of physiological solution were placed in intestinal sacs provided in rats under ether anesthesia. The rats were killed after 2 hours, and the residual content of the sac (wall+content) was analysed. In the 2nd test, portions of intestine turned inside out were used, incubated at 37° C. in accordance with Krebs Ringer against an external product concentration of 10^-4 M. The products were all salified with H2 SO4 to give salts in which m was 0 or 1 and n was 3.

[3] = test system: portions of intestine turned inside out; assay: absorption by portions of intestine turned inside out; format: in vitro ADME
Method: In the 2nd test, portions of intestine turned inside out were used, incubated at 37° C. in accordance with Krebs Ringer against an external product concentration of 10^-4 M. The products were all salified with H2 SO4 to give salts in which m was 0 or 1 and n was 3.

[4] = stability in the dry state at 45° C.; format: physicochemical
[5] = test system: intestinal sacs; assay: absorption "in situ" (intestinal sacs); format: in vivo, rat; conditions: 2 mg in 1 ml physiological solution, rats, 2 hours; H2 SO4 salts, m 0 or 1, n 3
Method: as §1

[6] = 37° C., Krebs Ringer, external concentration 10^-4 M, H2 SO4 salts, m 0 or 1, n 3
[7] = 45° C., 60 days, read-out: Degradation at 45° C. after 60 days
[8] = 45° C., 120 days, read-out: Degradation at 45° C. after 120 days
[9] = 45° C., 180 days, read-out: Degradation at 45° C. after 180 days
[10] = 45° C., 240 days, read-out: Degradation at 45° C. after 240 days
[11] = 45° C., 360 days, read-out: Degradation at 45° C. after 360 days

Compound: CCOC(=O)[C@@H](N)CC[S+](C)C[C@H]1O[C@@H](n2cnc3c(N)ncnc32)[C@H](O)[C@@H]1O (some centres unmarked) [C2 H5, SAM ethyl ester]
degraded at 0.25 h ([1]; pH 2): 2% | degraded at 0.5 h ([1]; pH 2): 4% | degraded at 1 h ([1]; pH 2): 8% | degraded at 4 h ([1]; pH 2): 35% | degraded at 0.25 h ([1]; pH 3): 3% | degraded at 0.5 h ([1]; pH 3): 6% | degraded at 1 h ([1]; pH 3): 13% | degraded at 4 h ([1]; pH 3): 55% | degraded at 0.25 h ([1]; pH 4): 5% | degraded at 0.5 h ([1]; pH 4): 9% | degraded at 1 h ([1]; pH 4): 19% | degraded at 4 h ([1]; pH 4): 80% | Fa at 2 h [2]: 59% | PRODUCT ABSORPTION intestine inside out [3, 6]: 0.061 nmoles/h/mg tissue

Compound: CCCOC(=O)[C@@H](N)CC[S+](C)C[C@H]1O[C@@H](n2cnc3c(N)ncnc32)[C@H](O)[C@@H]1O (some centres unmarked) [C3 H7 H H, SAM n-propyl ester]
Fa at 2 h [2]: 61% | PRODUCT ABSORPTION intestine inside out [3, 6]: 0.045 nmoles/h/mg tissue

Compound: CCCCOC(=O)[C@@H](N)CC[S+](C)C[C@H]1O[C@@H](n2cnc3c(N)ncnc32)[C@H](O)[C@@H]1O (some centres unmarked) [C4 H9, SAM n-butyl ester]
degraded at 0.25 h ([1]; pH 2): 2% | degraded at 0.5 h ([1]; pH 2): 4% | degraded at 1 h ([1]; pH 2): 8% | degraded at 4 h ([1]; pH 2): 30% | degraded at 0.25 h ([1]; pH 3): 3% | degraded at 0.5 h ([1]; pH 3): 6% | degraded at 1 h ([1]; pH 3): 12% | degraded at 4 h ([1]; pH 3): 52% | degraded at 0.25 h ([1]; pH 4): 4% | degraded at 0.5 h ([1]; pH 4): 9% | degraded at 1 h ([1]; pH 4): 17% | degraded at 4 h ([1]; pH 4): 75% | Fa at 2 h [2]: 65% | PRODUCT ABSORPTION intestine inside out [3, 6]: 0.037 nmoles/h/mg tissue

Compound: CCCCCOC(=O)[C@@H](N)CC[S+](C)C[C@H]1O[C@@H](n2cnc3c(N)ncnc32)[C@H](O)[C@@H]1O (some centres unmarked) [C5 H11 H H, SAM n-pentyl ester]
Fa at 2 h [2]: 68% | PRODUCT ABSORPTION intestine inside out [3, 6]: 0.025 nmoles/h/mg tissue

Compound: CCCCCCOC(=O)[C@@H](N)CC[S+](C)C[C@H]1O[C@@H](n2cnc3c(N)ncnc32)[C@H](O)[C@@H]1O (some centres unmarked) [C6 H13 H H, SAM n-hexyl ester]
Fa at 2 h [2]: 67% | PRODUCT ABSORPTION intestine inside out [3, 6]: 0.023 nmoles/h/mg tissue

Compound: COC(=O)[C@@H](N)CC[S+](C)C[C@H]1O[C@@H](n2cnc3c(N)ncnc32)[C@H](O)[C@@H]1O (some centres unmarked) [CH3, SAM methyl ester]
degraded at 0.25 h ([1]; pH 2): 5% | degraded at 0.5 h ([1]; pH 2): 10% | degraded at 1 h ([1]; pH 2): 21% | degraded at 4 h ([1]; pH 2): 75% | degraded at 0.25 h ([1]; pH 3): 6% | degraded at 0.5 h ([1]; pH 3): 13% | degraded at 1 h ([1]; pH 3): 25% | degraded at 4 h ([1]; pH 3): 100% | degraded at 0.25 h ([1]; pH 4): 8% | degraded at 0.5 h ([1]; pH 4): 18% | degraded at 1 h ([1]; pH 4): 40% | degraded at 4 h ([1]; pH 4): 100% | Fa at 2 h [2]: 55% | PRODUCT ABSORPTION intestine inside out [3, 6]: 0.078 nmoles/h/mg tissue

Compound: CCCCC(=O)N[C@@H](CC[S+](C)C[C@H]1O[C@@H](n2cnc3c(N)ncnc32)[C@H](OC(=O)CCCC)[C@@H]1OC(=O)CCCC)C(=O)[O-] (some centres unmarked) [H COC4 H9 COC4 H9]
Fa at 2 h [2]: 87% | PRODUCT ABSORPTION intestine inside out [3, 6]: 0.031 nmoles/h/mg tissue

Compound: CCCCC(=O)N[C@@H](CC[S+](C)C[C@H]1O[C@@H](n2cnc3c(N)ncnc32)[C@H](O)[C@@H]1O)C(=O)[O-] (some centres unmarked) [H COC4 H9 H]
Fa at 2 h [2]: 18% | PRODUCT ABSORPTION intestine inside out [3, 6]: 0.028 nmoles/h/mg tissue

Compound: C[S+](CC[C@H](NC(=O)c1ccccc1)C(=O)[O-])C[C@H]1O[C@@H](n2cnc3c(N)ncnc32)[C@H](O)[C@@H]1O (some centres unmarked) [H COC6 H5 H, SAM benzoyl]
Fa at 2 h [2]: 12% | PRODUCT ABSORPTION intestine inside out [3, 6]: 0.017 nmoles/h/mg tissue

Other lines, results leading:

Fa at 2 h [2]: 65% | PRODUCT ABSORPTION intestine inside out [3, 6]: 0.047 nmoles/h/mg tissue
Compound: CC(=O)N[C@@H](CC[S+](C)C[C@H]1O[C@@H](n2cnc3c(N)ncnc32)[C@H](OC(C)=O)[C@@H]1OC(C)=O)C(=O)[O-] (some centres unmarked) [H COCH3 COCH3, SAM triacetyl]

Fa at 2 h [2]: 10% | PRODUCT ABSORPTION intestine inside out [3, 6]: 0.046 nmoles/h/mg tissue
Compound: CC(=O)N[C@@H](CC[S+](C)C[C@H]1O[C@@H](n2cnc3c(N)ncnc32)[C@H](O)[C@@H]1O)C(=O)[O-] (some centres unmarked) [H COCH3 H, SAM monoacetyl]

Fa at 2 h [2]: 23% | PRODUCT ABSORPTION intestine inside out [3, 6]: 0.018 nmoles/h/mg tissue
Compound: C[S+](CC[C@H](NC(=O)CCCC(=O)O)C(=O)[O-])C[C@H]1O[C@@H](n2cnc3c(N)ncnc32)[C@H](O)[C@@H]1O (some centres unmarked) [H Glutaryl H, SAM glutaryl]

Fa at 2 h [2]: 91% | PRODUCT ABSORPTION intestine inside out [3, 6]: 0.035 nmoles/h/mg tissue
Compound: CC(=O)O[C@@H]1[C@H](OC(C)=O)[C@@H](C[S+](C)CC[C@H](NC(=O)CCC(=O)O)C(=O)[O-])O[C@H]1n1cnc2c(N)ncnc21 (some centres unmarked) [H Succinyl COCH3, SAM succinyl-diacetyl]

Fa at 2 h [2]: 25% | PRODUCT ABSORPTION intestine inside out [3, 6]: 0.016 nmoles/h/mg tissue
Compound: C[S+](CC[C@H](NC(=O)CCC(=O)O)C(=O)[O-])C[C@H]1O[C@@H](n2cnc3c(N)ncnc32)[C@H](O)[C@@H]1O (some centres unmarked) [H Succinyl H, SAM succinyl]

Fa at 2 h [2]: 13% | PRODUCT ABSORPTION intestine inside out [3, 6]: 0.021 nmoles/h/mg tissue
Compound: Cc1ccc(S(=O)(=O)N[C@@H](CC[S+](C)C[C@H]2O[C@@H](n3cnc4c(N)ncnc43)[C@H](O)[C@@H]2O)C(=O)[O-])cc1 (some centres unmarked) [H p.tol. sulphon. H, SAM p-toluenesulphonyl]

degraded at 0.25 h ([1]; pH 2): 80% | degraded at 0.5 h ([1]; pH 2): 100% | degraded at 1 h ([1]; pH 2): 100% | degraded at 4 h ([1]; pH 2): 100% | degraded at 0.25 h ([1]; pH 3): 90% | degraded at 0.5 h ([1]; pH 3): 100% | degraded at 1 h ([1]; pH 3): 100% | degraded at 4 h ([1]; pH 3): 100% | degraded at 0.25 h ([1]; pH 4): 100% | degraded at 0.5 h ([1]; pH 4): 100% | degraded at 1 h ([1]; pH 4): 100% | degraded at 4 h ([1]; pH 4): 100% | PRODUCT ABSORPTION intestine inside out [3]: 0.009 nmoles/h/mg tissue
Compound: C[S+](CC[C@H](N)C(=O)[O-])C[C@H]1O[C@@H](n2cnc3c(N)ncnc32)[C@H](O)[C@@H]1O (some centres unmarked) [H, S-adenosylmethionine]

degraded at 1440 h [4, 7]: 0% | degraded at 2880 h [4, 8]: 1.4% | degraded at 4320 h [4, 9]: 3% | degraded at 5760 h [4, 10]: 4.6% | degraded at 8640 h [4, 11]: 5.5%
Compound: CC(=O)N[C@@H](CC[S+](C)C[C@H]1O[C@@H](n2cnc3c(N)ncnc32)[C@H](O)[C@@H]1O)C(=O)[O-] (some centres unmarked) [SAM monoacetyl. 2 H2 SO4, SAM monoacetyl]

degraded at 1440 h [4, 7]: 1% | degraded at 2880 h [4, 8]: 1.9% | degraded at 4320 h [4, 9]: 4.1% | degraded at 5760 h [4, 10]: 5.9% | degraded at 8640 h [4, 11]: 8%
Compound: CC(=O)N[C@@H](CC[S+](C)C[C@H]1O[C@@H](n2cnc3c(N)ncnc32)[C@H](OC(C)=O)[C@@H]1OC(C)=O)C(=O)[O-] (some centres unmarked) [SAM triacetyl. 2 H2 SO4, SAM triacetyl]

degraded at 1440 h [4]: 80% | degraded at 2880 h [4]: 100% | degraded at 4320 h [4]: 100% | degraded at 5760 h [4]: 100% | degraded at 8640 h [4]: 100%
Compound: C[S+](CC[C@H](N)C(=O)[O-])C[C@H]1O[C@@H](n2cnc3c(N)ncnc32)[C@H](O)[C@@H]1O (some centres unmarked) [SAM. H2 SO4, S-adenosylmethionine]

PRODUCT ABSORPTION in sacs [5]: 65 % of dose | PRODUCT ABSORPTION intestine inside out [3, 6]: 0.019 nmoles/h/mg tissue
Compound: SAM n-dodecyl [H Dodecyl H]

PRODUCT ABSORPTION in sacs [5]: 62 % of dose | PRODUCT ABSORPTION intestine inside out [3, 6]: 0.023 nmoles/h/mg tissue
Compound: SAM n-octyl [H Octyl H]
